Measured values from ChEMBL document CHEMBL1139006, “Synthesis and in vitro antibiotic activity of 16-membered 9-O-arylalkyloxime macrolides” (2006).
Values after ≈ are worked out from the molar mass of the structure shown.

Experiments:
Assay type in all cases: functional
Streptococcus pneumoniae [1] = test: Antibacterial activity against Streptococcus pneumoniae ATCC 6301
Streptococcus pneumoniae [2] = test: Antibacterial activity against Streptococcus pneumoniae ATCC 700671
Streptococcus pneumoniae [3] = test: Antibacterial activity against macrolide resistant Streptococcus pneumoniae ATCC 700676
Streptococcus pneumoniae [4] = test: Antibacterial activity against macrolide resistant Streptococcus pneumoniae ATCC 700677
Streptococcus pneumoniae [5] = test: Antibacterial activity against macrolide resistant Streptococcus pneumoniae ATCC 700905
Streptococcus pneumoniae [6] = test: Antibacterial activity against macrolide resistant Streptococcus pneumoniae ATCC 700906
Streptococcus pneumoniae [7] = test: Antibacterial activity against Streptococcus pneumoniae ATCC 49619
Staphylococcus aureus [8] = test: Antibacterial activity against Staphylococcus aureus ATCC 6538p
Staphylococcus aureus [9] = test: Antibacterial activity against macrolide resistant Staphylococcus aureus ATCC 33591
Staphylococcus aureus [10] = test: Antibacterial activity against macrolide resistant Staphylococcus aureus ATCC 141541
Staphylococcus aureus [11] = test: Antibacterial activity against macrolide resistant Staphylococcus aureus ATCC BAA-39
Staphylococcus aureus [12] = test: Antibacterial activity against macrolide resistant Staphylococcus aureus ATCC BAA-44
Staphylococcus aureus [13] = test: Antibacterial activity against Staphylococcus aureus ATCC 29213
[14] = system: Staphylococcus epidermidis; test: Antibacterial activity against Staphylococcus epidermidis ATCC 12228
Enterococcus faecalis = test: Antibacterial activity against Enterococcus faecalis ATCC 51575

Compound: CC[C@H]1OC(=O)C[C@@H](O)[C@H](C)[C@@H](O[C@@H]2O[C@H](C)[C@@H](O)[C@H](N(C)C)[C@H]2O)[C@@H](CC=O)C[C@@H](C)C(=N\OCC#Cc2cnc3ccccc3c2)/C=C/C(C)=C/C1CO (stereo not given in full)
- MIC (Streptococcus pneumoniae [1]): 0.025 µg/mL (≈ 0.0321 µM)
- MIC (Streptococcus pneumoniae [2]): 0.049 µg/mL (≈ 0.063 µM)
- MIC (Streptococcus pneumoniae [3]): 0.049 µg/mL (≈ 0.063 µM)
- MIC (Streptococcus pneumoniae [4]): > 12.5 µg/mL
- MIC (Streptococcus pneumoniae [5]): 0.049 µg/mL (≈ 0.063 µM)
- MIC (Streptococcus pneumoniae [6]): > 12.5 µg/mL
- MIC (Streptococcus pneumoniae [7]): 0.049 µg/mL (≈ 0.063 µM)
- MIC (Staphylococcus aureus [8]): 0.098 µg/mL (≈ 0.126 µM)
- MIC (Staphylococcus aureus [9]): > 12.5 µg/mL
- MIC (Staphylococcus aureus [10]): 0.78 µg/mL (≈ 1 µM)
- MIC (Staphylococcus aureus [11]): > 12.5 µg/mL
- MIC (Staphylococcus aureus [12]): > 12.5 µg/mL
- MIC (Staphylococcus aureus [13]): 0.39 µg/mL (≈ 0.501 µM)
- MIC [14]: 0.2 µg/mL (≈ 0.257 µM)
- MIC (Enterococcus faecalis): > 12.5 µg/mL

Compound: CC[C@H]1OC(=O)C[C@@H](O)[C@H](C)[C@@H](O[C@@H]2O[C@H](C)[C@@H](O)[C@H](N(C)C)[C@H]2O)[C@@H](CC=O)C[C@@H](C)C(=N/OC/C=C\c2cnc3ccccc3c2)/C=C/C(C)=C/C1CO (stereo not given in full)
- MIC (Streptococcus pneumoniae [1]): 0.025 µg/mL (≈ 0.0321 µM)
- MIC (Streptococcus pneumoniae [2]): 0.025 µg/mL (≈ 0.0321 µM)
- MIC (Streptococcus pneumoniae [3]): 0.049 µg/mL (≈ 0.0628 µM)
- MIC (Streptococcus pneumoniae [4]): > 12.5 µg/mL
- MIC (Streptococcus pneumoniae [5]): 0.049 µg/mL (≈ 0.0628 µM)
- MIC (Streptococcus pneumoniae [6]): > 12.5 µg/mL
- MIC (Streptococcus pneumoniae [7]): 0.025 µg/mL (≈ 0.0321 µM)
- MIC (Staphylococcus aureus [8]): 0.2 µg/mL (≈ 0.256 µM)
- MIC (Staphylococcus aureus [9]): > 12.5 µg/mL
- MIC (Staphylococcus aureus [10]): 0.78 µg/mL (≈ 1 µM)
- MIC (Staphylococcus aureus [11]): > 12.5 µg/mL
- MIC (Staphylococcus aureus [12]): > 12.5 µg/mL
- MIC (Staphylococcus aureus [13]): 0.78 µg/mL (≈ 1 µM)
- MIC [14]: 0.39 µg/mL (≈ 0.5 µM)
- MIC (Enterococcus faecalis): > 12.5 µg/mL

Compound: CC[C@H]1OC(=O)C[C@@H](O)[C@H](C)[C@@H](O[C@@H]2O[C@H](C)[C@@H](O)[C@H](N(C)C)[C@H]2O)[C@@H](CCN2C[C@H](C)C[C@H](C)C2)C[C@@H](C)C(=O)/C=C/C(C)=C/[C@@H]1CO[C@@H]1O[C@H](C)[C@@H](O)[C@@H](OC)[C@H]1OC [TILMICOSIN]
- MIC (Streptococcus pneumoniae [1]): 0.39 µg/mL (≈ 0.449 µM)
- MIC (Streptococcus pneumoniae [2]): 0.78 µg/mL (≈ 0.897 µM)
- MIC (Streptococcus pneumoniae [3]): 0.78 µg/mL (≈ 0.897 µM)
- MIC (Streptococcus pneumoniae [4]): 6.25 µg/mL (≈ 7.19 µM)
- MIC (Streptococcus pneumoniae [5]): 1.56 µg/mL (≈ 1.79 µM)
- MIC (Streptococcus pneumoniae [6]): > 12.5 µg/mL
- MIC (Streptococcus pneumoniae [7]): 1.56 µg/mL (≈ 1.79 µM)
- MIC (Staphylococcus aureus [8]): 0.098 µg/mL (≈ 0.113 µM)
- MIC (Staphylococcus aureus [9]): > 12.5 µg/mL
- MIC (Staphylococcus aureus [10]): 0.39 µg/mL (≈ 0.449 µM)
- MIC (Staphylococcus aureus [11]): > 12.5 µg/mL
- MIC (Staphylococcus aureus [12]): > 12.5 µg/mL
- MIC (Staphylococcus aureus [13]): 0.2 µg/mL (≈ 0.23 µM)
- MIC [14]: 0.098 µg/mL (≈ 0.113 µM)
- MIC (Enterococcus faecalis): > 12.5 µg/mL

Compound: CC[C@H]1OC(=O)C[C@@H](O)[C@H](C)[C@@H](O[C@@H]2O[C@H](C)[C@@H](O)[C@H](N(C)C)[C@@H]2O)[C@@H](CCN2CC(C)CC(C)C2)C[C@@H](C)C(=N\OCCCCc2ccc3ccccc3c2)/C=C/C(C)=C/C1CO (stereo not given in full)
- MIC (Streptococcus pneumoniae [1]): 6.25 µg/mL (≈ 7 µM)
- MIC (Streptococcus pneumoniae [2]): 12.5 µg/mL (≈ 14 µM)
- MIC (Streptococcus pneumoniae [3]): > 12.5 µg/mL
- MIC (Streptococcus pneumoniae [4]): > 12.5 µg/mL
- MIC (Streptococcus pneumoniae [5]): 12.5 µg/mL (≈ 14 µM)
- MIC (Streptococcus pneumoniae [6]): > 12.5 µg/mL
- MIC (Streptococcus pneumoniae [7]): 12.5 µg/mL (≈ 14 µM)
- MIC (Staphylococcus aureus [8]): > 12.5 µg/mL
- MIC (Staphylococcus aureus [9]): > 12.5 µg/mL
- MIC (Staphylococcus aureus [10]): > 12.5 µg/mL
- MIC (Staphylococcus aureus [11]): > 12.5 µg/mL
- MIC (Staphylococcus aureus [12]): > 12.5 µg/mL
- MIC (Staphylococcus aureus [13]): > 12.5 µg/mL
- MIC [14]: > 12.5 µg/mL
- MIC (Enterococcus faecalis): > 12.5 µg/mL

Compound: CC[C@H]1OC(=O)C[C@@H](O)[C@H](C)[C@@H](O[C@@H]2O[C@H](C)[C@@H](O)[C@H](N(C)C)[C@H]2O)[C@@H](CC=O)C[C@@H](C)C(=N\OC/C=C/c2cnc3ccccc3c2)/C=C/C(C)=C/C1CO (stereo not given in full)
- MIC (Streptococcus pneumoniae [1]): 0.025 µg/mL (≈ 0.0321 µM)
- MIC (Streptococcus pneumoniae [2]): 0.049 µg/mL (≈ 0.0628 µM)
- MIC (Streptococcus pneumoniae [3]): 0.049 µg/mL (≈ 0.0628 µM)
- MIC (Streptococcus pneumoniae [4]): > 12.5 µg/mL
- MIC (Streptococcus pneumoniae [5]): 0.049 µg/mL (≈ 0.0628 µM)
- MIC (Streptococcus pneumoniae [6]): > 12.5 µg/mL
- MIC (Streptococcus pneumoniae [7]): 0.025 µg/mL (≈ 0.0321 µM)
- MIC (Staphylococcus aureus [8]): 0.098 µg/mL (≈ 0.126 µM)
- MIC (Staphylococcus aureus [9]): > 12.5 µg/mL
- MIC (Staphylococcus aureus [10]): 0.39 µg/mL (≈ 0.5 µM)
- MIC (Staphylococcus aureus [11]): > 12.5 µg/mL
- MIC (Staphylococcus aureus [12]): > 12.5 µg/mL
- MIC (Staphylococcus aureus [13]): 0.39 µg/mL (≈ 0.5 µM)
- MIC [14]: 0.049 µg/mL (≈ 0.0628 µM)
- MIC (Enterococcus faecalis): > 12.5 µg/mL

Compound: CC[C@H]1OC(=O)C[C@@H](O)[C@H](C)[C@@H](O[C@@H]2O[C@H](C)[C@@H](O)[C@H](N(C)C)[C@@H]2O)[C@@H](CCN2CC(C)CC(C)C2)C[C@@H](C)C(=N\OCc2ccc(F)cc2)/C=C/C(C)=C/C1CO (stereo not given in full)
- MIC (Streptococcus pneumoniae [1]): 0.39 µg/mL (≈ 0.477 µM)
- MIC (Streptococcus pneumoniae [2]): 0.39 µg/mL (≈ 0.477 µM)
- MIC (Streptococcus pneumoniae [3]): 0.39 µg/mL (≈ 0.477 µM)
- MIC (Streptococcus pneumoniae [4]): > 12.5 µg/mL
- MIC (Streptococcus pneumoniae [5]): 0.39 µg/mL (≈ 0.477 µM)
- MIC (Streptococcus pneumoniae [6]): > 12.5 µg/mL
- MIC (Streptococcus pneumoniae [7]): 0.39 µg/mL (≈ 0.477 µM)
- MIC (Staphylococcus aureus [8]): 0.78 µg/mL (≈ 0.953 µM)
- MIC (Staphylococcus aureus [9]): > 12.5 µg/mL
- MIC (Staphylococcus aureus [10]): 3.12 µg/mL (≈ 3.81 µM)
- MIC (Staphylococcus aureus [11]): > 12.5 µg/mL
- MIC (Staphylococcus aureus [12]): > 12.5 µg/mL
- MIC (Staphylococcus aureus [13]): 3.12 µg/mL (≈ 3.81 µM)
- MIC [14]: 3.12 µg/mL (≈ 3.81 µM)
- MIC (Enterococcus faecalis): > 12.5 µg/mL

Compound: CC[C@H]1OC(=O)C[C@@H](O)[C@H](C)[C@@H](O[C@@H]2O[C@H](C)[C@@H](O[C@H]3C[C@@](C)(O)[C@@H](O)[C@H](C)O3)[C@H](N(C)C)[C@H]2O)[C@@H](CC=O)C[C@@H](C)C(=O)/C=C/C(C)=C/[C@@H]1CO[C@@H]1O[C@H](C)[C@@H](O)[C@@H](OC)[C@H]1OC [TYLOSIN]
- MIC (Streptococcus pneumoniae [1]): 0.098 µg/mL (≈ 0.107 µM)
- MIC (Streptococcus pneumoniae [2]): 0.2 µg/mL (≈ 0.218 µM)
- MIC (Streptococcus pneumoniae [3]): 0.2 µg/mL (≈ 0.218 µM)
- MIC (Streptococcus pneumoniae [4]): > 12.5 µg/mL
- MIC (Streptococcus pneumoniae [5]): 0.2 µg/mL (≈ 0.218 µM)
- MIC (Streptococcus pneumoniae [6]): > 12.5 µg/mL
- MIC (Streptococcus pneumoniae [7]): 0.098 µg/mL (≈ 0.107 µM)
- MIC (Staphylococcus aureus [8]): 0.2 µg/mL (≈ 0.218 µM)
- MIC (Staphylococcus aureus [9]): > 12.5 µg/mL
- MIC (Staphylococcus aureus [10]): 1.56 µg/mL (≈ 1.7 µM)
- MIC (Staphylococcus aureus [11]): > 12.5 µg/mL
- MIC (Staphylococcus aureus [12]): > 12.5 µg/mL
- MIC (Staphylococcus aureus [13]): 1.56 µg/mL (≈ 1.7 µM)
- MIC [14]: 0.39 µg/mL (≈ 0.426 µM)
- MIC (Enterococcus faecalis): > 12.5 µg/mL

Compound: CC[C@H]1OC(=O)C[C@@H](O)[C@H](C)[C@@H](O[C@@H]2O[C@H](C)[C@@H](O)[C@H](N(C)C)[C@@H]2O)[C@@H](CCN2CC(C)CC(C)C2)C[C@@H](C)C(=N/OCCCCc2ccc3ncccc3c2)/C=C/C(C)=C/C1CO (stereo not given in full)
- MIC (Streptococcus pneumoniae [1]): 1.56 µg/mL (≈ 1.75 µM)
- MIC (Streptococcus pneumoniae [2]): 3.12 µg/mL (≈ 3.49 µM)
- MIC (Streptococcus pneumoniae [3]): 6.25 µg/mL (≈ 7 µM)
- MIC (Streptococcus pneumoniae [4]): > 12.5 µg/mL
- MIC (Streptococcus pneumoniae [5]): 6.25 µg/mL (≈ 7 µM)
- MIC (Streptococcus pneumoniae [6]): > 12.5 µg/mL
- MIC (Streptococcus pneumoniae [7]): 6.25 µg/mL (≈ 7 µM)
- MIC (Staphylococcus aureus [8]): 6.25 µg/mL (≈ 7 µM)
- MIC (Staphylococcus aureus [9]): > 12.5 µg/mL
- MIC (Staphylococcus aureus [10]): > 12.5 µg/mL
- MIC (Staphylococcus aureus [11]): > 12.5 µg/mL
- MIC (Staphylococcus aureus [12]): > 12.5 µg/mL
- MIC (Staphylococcus aureus [13]): 12.5 µg/mL (≈ 14 µM)
- MIC [14]: > 12.5 µg/mL
- MIC (Enterococcus faecalis): > 12.5 µg/mL
